Results: patent US20130011384A1, “Use of a Material, Produced from Fungal Fermentation, as a Food Supplement” (priority 2010, published 2013)

Test system: methanogenic archaea
Test: In vitro sequential batch fermentation of sheep ruminal fluid with alfalfa hay (Example 2)
Format: cell-based
Conditions: for Acetate / Butyrate / Gas / Methane / Propionate / Total VFA: 48 hrs at 39° C., 100 μl/tube, monacolin K 20 μg/ml final
Source text: The effect of a rice extract fermented by a selected strain of Monascus sp., prepared in accordance with Example 1, on ruminal fermentation, specifically on methane production, was studied in vitro by using a sequential batch fermentation system.
Three sheep equipped with rumen cannulae, receiving hay-based feed twice a day, were used as ruminal content donors. The ruminal contents of the three animals were sampled in the morning before feeding, filtered through a cloth with a mesh size of 400 μm in diameter in order to obtain the liquid phase, and mixed in equal quantities. To seventy-five milliliters of this mixed ruminal fluid was added 300 ml of anaerobic buffer solution (Weller & Pilgrim, Br. J. Nutr. 32:341-51. 1974). An aliquot fraction (5 ml) of this ruminal fluid/buffer solution was then transferred into Hungate tubes in a CO2 atmosphere containing 100±2 mg of alfalfa hay. To each tube was added, respectively: (i) 100 μl of the Monascus extract, or (ii) pure monacolin K, (iii) a 25% (v/v) ethanol solution, or (iv) water (see Table 1 below). The tubes were incubated at 39° C. for 48 hrs. Each treatment was performed three times.
After 48 hrs. of incubation, 2 ml of each of the triplicates of each treatment were mixed, and 1.5 ml of this mixture was used to inoculate 3 new Hungate tubes containing 3.5 ml of buffer and 100 mg of alfalfa hay.
Next, 100 μl of the various treatments was added to the tubes (Cf. Table 1 above), and the tubes were again incubated at 39° C. while stirring for an additional 48 hrs. This procedure was repeated a second time.
At the end of each 48-hr. period, gas production and concentrations of methane and of volatile fatty acids resulting from fermentation were measured.

CC[C@H](C)C(=O)O[C@H]1C[C@@H](C)C=C2C=C[C@H](C)[C@H](CC[C@@H]3C[C@@H](O)CC(=O)O3)[C@H]21 [Monacolin K, monacolin K]
Acetate (1st Transfer): 69.6 ± 1.5 mmol/L
Butyrate (1st Transfer): 6.1 ± 0.1 mmol/L
Gas (1st Transfer): 21.9 ± 0.3 mL
Methane (1st Transfer): 162.5 ± 22.9 µmol
Propionate (1st Transfer): 16.7 ± 0.4 mmol/L
Total VFA (1st Transfer): 96.3 ± 2.1
Acetate (2nd Transfer): 49.1 ± 3.8 mmol/L
Butyrate (2nd Transfer): 5.9 ± 0.7 mmol/L
Gas (2nd Transfer): 17.8 ± 0.5 mL
Methane (2nd Transfer): 16.2 ± 17.0 µmol
Propionate (2nd Transfer): 19.7 ± 2.8 mmol/L
Total VFA (2nd Transfer): 76.5 ± 7.4
Acetate (3rd Transfer): 57.3 ± 6.9 mmol/L
Butyrate (3rd Transfer): 6.6 ± 1.0 mmol/L
Gas (3rd Transfer): 19.2 ± 0.4 mL
Methane (3rd Transfer): 59.1 ± 9.4 µmol
Propionate (3rd Transfer): 28.5 ± 3.5 mmol/L
Total VFA (3rd Transfer): 95.1 ± 11.5
methane-production-reducing effect (in vitro, under the same conditions as the Monascus fermentation product): no methane-production-reducing effect
